Data as given in patent US11026989B2, “Composition for treating erectile dysfunction by Orchis anatolica extract” (Jordan University of Science and Technology, priority 2016, dated 2021).

Test system: penile tissue (corpus cavernosum strips)
Test: In vitro relaxation of penile tissue strips in physiological organ bath after induced contraction
Design: species or system New Zealand rabbit and albino rats
Excerpt: A water-jacketed physiological organ bath provides a stable and adjustable way of organ stability and temperature control. Substrates and other nutrients that are required to sustain tissue function were provided via a physiological solution (e.g., Krebs solution). This will allowed the study of evoked tissue responses to pharmacological agents and/or electrical stimulation.
Penile tissues from a mature New Zealand rabbit (e.g., 3-3.5 kg) and albino rats (e.g., 300-350 g) were dissected out and cleaned of the outer adherent connective tissue, and the two corpora cavernosa integral tissues were obtained. Each corpus cavernosum was cut lengthwise into 4 pieces measuring about 2 mm thick and 10-12 mm long out of which a 7-8 mm long piece was taken from the middle part of each strip by removing the two unwanted edges of these strips. The strips were kept in a well oxygenated Krebs solution, pre-cooled to 4° C., and placed in a refrigerator until the initiation of the experiment.
Each erectile tissue (“ET”) was mounted by clipping both of its ends within the bath. An ET strip was hooked to one clip end, which was tied to a metal wire (e.g., mounting hook), which was fixed to a bottom of a water-jacketed chamber. The top end of the strip was clipped to a cotton thread and connected to a lever (e.g., arm), which was connected to a Harvard isotonic transducer. The former was connected to a Harvard Universal Oscillograph for recording the force of contraction to an isotonic transducer. The tissue strip was stretched against a fixed caliber weight of 2 gm attached to the lever of the isotonic transducer. The free movable lever end was horizontally adjusted receptive to any movement according to the contraction and relaxation of the ET within the path when stimulated. Before each experiment, the transducer was calibrated two times against this caliber weight. The bath into which the tissue was mounted contained 25 ml of oxygenated Krebs solution with continuous oxygenation (gas mixture of 95% O2 and 5% CO2 and at 37° C.) and left for 60 minutes before starting the experiment.
Certain specifications for collection of Orchis anatolica plants were adopted so that the intact roots together with the potato-shaped bulb parts were collected and preserved intact. Bulbs were detached from roots and left to dry at air temperature, and then separated into two categories: a large rounded sized bulb resembling the small sized potato (male bulb) and an elongated small sized bulb (female or feeding bulb). The round potato shaped bulb was chopped and grinded using an electrical grinder until a powder was obtained. Each 500 g of dried and grinded orchis roots was then refluxed in (2 L) 70% ethanol at 50° C. for 36 hours in a continuous extraction (soxhlet) apparatus. Ethanol extract was filtered and concentrated under reduced pressure at 50° C. using a rotary evaporator. Red Korean Panax Ginseng was obtained from a South Korea market as a concentrated powder vacuumed and sealed in metal container packages of 50 g (commercially obtained from KOREAEXPORT CO LTD). Powder was dissolved well in distilled water from which different concentrations were used. Different doses of both Orchis anatolica extract and Red Korean Panax Ginseng were used to obtain and determine the maximum effect of ET response.
A 1 liter Krebs stock solution was prepared the day before the experiment containing the following chemicals: NaCl (125 mM), NaHCO3 (20 mM), KCl (4 mM), NaH2PO4 (1.8 mM), MgSO4 (1.8 mM), CaCl2 (1.8 mM), glucose (10 mM), and HEPES buffer (10 mM) (see Table 1). For a final 1 liter Krebs solution, 725 ml ringer and […] Deionized water were added. The solution pH was set to 7.4 after gassing with 95% O2/5% CO2 for 30 minutes before it was used. Krebs solutions were freshly prepared on each experimental day from the stock solutions stored in the refrigerator. […]

Row | Compound | Time dependent penile tissue contraction (−) and relaxation (+) response to treatment (5 minutes, 0.002 g/50 ml Krebs, after phenylephrine contraction) | Time dependent penile tissue contraction (−) and relaxation (+) response to treatment (15 minutes, 0.002 g/50 ml Krebs, after phenylephrine contraction) | Time dependent penile tissue contraction (−) and relaxation (+) response to treatment (25 minutes, 0.002 g/50 ml Krebs, after phenylephrine contraction) | Time dependent penile tissue contraction (−) and relaxation (+) response to treatment (5 minutes, 0.0509 gm stock solution) | Time dependent penile tissue contraction (−) and relaxation (+) response to treatment (10 minutes, 0.0509 gm stock solution) | Time dependent penile tissue contraction (−) and relaxation (+) response to treatment (15 minutes, 0.0509 gm stock solution) | Time dependent penile tissue contraction (−) and relaxation (+) response to treatment (20 minutes, 0.0509 gm stock solution) | Time dependent penile tissue contraction (−) and relaxation (+) response to treatment (25 minutes, 0.0509 gm stock solution)
1 | CCCc1nn(C)c2c(=O)[nH]c(-c3cc(S(=O)(=O)N4CCN(C)CC4)ccc3OCC)nc12 [Sildenafil] | 11% | 12% | 24% |  |  |  |  | 
2 | CNC[C@H](O)c1cccc(O)c1 [L-Phenylephrine] |  |  |  | −6.8%^ | −8.2%^ | −9.5%^ | −10% | −10%
